Data reported in patent publication US10519152B2, “Compounds and their use in treating cancer” (AstraZeneca AB, priority 2017, dated 2019).

Assays:
[1] = target: T1, recombinant human Estrogen Receptor alpha ligand binding domain, residues 307-554 (ER alpha-LBD (GST)) (Homo sapiens, UniProt P03372); test: ERα binding assay (LanthaScreen TR-FRET competition); conditions: TR-FRET competition with Fluormone ES2 tracer, 4 hours at room temperature; single experiment or average of two or more
T1 construct: made in house
T1 sequence (P03372 307-554): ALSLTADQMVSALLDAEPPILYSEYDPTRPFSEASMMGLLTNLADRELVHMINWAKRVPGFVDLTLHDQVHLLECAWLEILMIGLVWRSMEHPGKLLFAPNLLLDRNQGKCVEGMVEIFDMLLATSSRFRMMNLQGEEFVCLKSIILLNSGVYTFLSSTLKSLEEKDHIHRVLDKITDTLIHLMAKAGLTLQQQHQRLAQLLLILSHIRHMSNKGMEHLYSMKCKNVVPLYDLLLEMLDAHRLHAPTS
Method: The ability of compounds to bind to isolated Estrogen Receptor Alpha Ligand binding domain (ER alpha-LBD (GST)) was assessed in competition assays using a LanthaScreen™ Time-Resolved Fluorescence Resonance Energy Transfer (TR-FRET) detection end-point. For the LanthaScreen TR-FRET endpoint, a suitable fluorophore (Fluormone ES2, ThermoFisher, Product code P2645) and recombinant human Estrogen Receptor alpha ligand binding domain, residues 307-554 (expressed and purified in-house) were used to measure compound binding. The assay principle is that ER alpha-LBD (GST) is added to a fluorescent ligand to form a receptor/fluorophore complex. A terbium-labelled anti-GST antibody (Product code PV3551) is used to indirectly label the receptor by binding to its GST tag, and competitive binding is detected by a test compound's ability to displace the fluorescent ligand, resulting in a loss of TR-FRET signal between the Tb-anti-GST antibody and the tracer. The assay was performed as follows with all reagent additions carried out using the Beckman Coulter BioRAPTR FRD microfluidic workstation: • 1. Acoustic dispense 120 nL of the test compound into a black low volume 384 well assay plates. • 2. Prepare 1×ER alpha-LBD/Tb-antiGST Ab in ES2 screening buffer and incubate for 15 minutes. • 3. Dispense 6 μL of the […] reagent into each well of the assay plate followed by 6 μL of Fluorophore reagent into each well of the assay plate • 4. Cover the assay plate to protect the reagents from light and evaporation, and incubate at room temperature for 4 hours. • 5. Excite at 337 nm and measure the fluorescent emission signal of each well at 490 nm and 520 nm using the BMG PheraSTAR.
Compounds were dosed directly from a compound source microplate containing serially diluted compound (4 wells containing 10 mM, […] and 10 nM final compound respectively) to an assay microplate using the Labcyte Echo 550. The Echo 550 is a liquid handler that uses acoustic technology to perform direct microplate-to-microplate transfers of DMSO compound solutions and the system can be programmed to transfer multiple small nL volumes of compound from the different source plate wells to give the desired serial dilution of compound in the assay which is then back-filled to normalise the DMSO concentration across the dilution range.
In total 120 nL of compound plus DMSO were added to each well and compounds were tested in a 12-point concentration response format over a final compound concentration range of 10, 2.917, 1.042, 0.2083, 0.1, 0.0292, 0.0104, 0.002083, 0.001, 0.0002917, 0.0001042, and 0.00001 μM respectively. TR-FRET dose response data obtained with each compound was exported into a suitable software package (such as Origin or Genedata) to perform curve fitting analysis. Competitive ER alpha binding was expressed as an IC50 value. This was determined by calculation of the concentration of compound that was required to give a 50% reduction in tracer compound binding to ER alpha-LBD.

[2] = target: T2, Estrogen Receptor (ERα) in MCF-7 human ductal carcinoma breast cell line (Homo sapiens, UniProt P03372); test: MCF-7 ER degradation assay (cell based immuno-fluorescence); conditions: MCF-7 cells, 18-22 hours incubation, 50% reduction of ERα expression; single experiment or average of two or more; read-out: MCF-7 ER degradation IC50
T2 construct: endogenous in cells; host or cells: MCF-7
T2 sequence (P03372 1-595): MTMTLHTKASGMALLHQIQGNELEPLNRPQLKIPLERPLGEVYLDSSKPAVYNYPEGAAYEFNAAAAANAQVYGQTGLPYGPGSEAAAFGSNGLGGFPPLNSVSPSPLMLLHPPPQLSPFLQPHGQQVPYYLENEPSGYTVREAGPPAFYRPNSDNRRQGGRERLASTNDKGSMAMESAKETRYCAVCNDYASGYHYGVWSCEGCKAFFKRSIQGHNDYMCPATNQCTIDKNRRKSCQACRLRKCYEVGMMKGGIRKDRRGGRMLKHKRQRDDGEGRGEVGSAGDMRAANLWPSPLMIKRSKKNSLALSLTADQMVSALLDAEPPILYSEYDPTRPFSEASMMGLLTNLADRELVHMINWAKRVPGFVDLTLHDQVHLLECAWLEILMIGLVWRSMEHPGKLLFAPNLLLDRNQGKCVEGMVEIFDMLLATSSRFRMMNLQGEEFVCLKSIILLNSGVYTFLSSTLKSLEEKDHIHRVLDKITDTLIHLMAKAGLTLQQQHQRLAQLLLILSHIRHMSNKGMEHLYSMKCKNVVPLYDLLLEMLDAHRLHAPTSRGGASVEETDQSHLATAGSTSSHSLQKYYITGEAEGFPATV
Method: MCF-7 ER Degradation Assay
The ability of compounds to down-regulate Estrogen Receptor (ER) numbers was assessed in a cell based immuno-fluorescence assay using the MCF-7 human ductal carcinoma breast cell line. MCF-7 cells were revived directly from a cryovial (approx 5×10^6 cells) in Assay Medium (phenol red free Dulbecco's Modified Eagle's medium (DMEM); Sigma D5921) containing 2 mM L-Glutamine and 5% (v/v) Charcoal/Dextran treated foetal calf serum. Cells were syringed once using a sterile 18 G×1.5 inch (1.2×40 mm) broad gauge needle and cell density was measured using a Coulter Counter (Beckman). Cells were further diluted in Assay Medium to a density of 3.75×10^4 cells per mL and 40 μL per well added to transparent bottomed, black, tissue culture-treated 384 well plates (Costar, No. 3712) using a Thermo Scientific Matrix WellMate or Thermo Multidrop. Following cell seeding, plates were incubated overnight at 37° C., 5% CO2 (Liconic carousel incubator). Test data was generated using the LabCyte Echo™ model 555 compound reformatter which is part of an automated workcell (Integrated Echo 2 workcell). Compound stock solutions (10 mM) of the test compounds were used to generate a 384 well compound dosing plate (Labcyte P-05525-CV1). 40 μL of each of the 10 mM compound stock solutions was dispensed into the first quadrant well and then 1:100 step-wise serial dilutions in DMSO were performed using a Hydra II (MATRIX UK) liquid handling unit to give 40 μL of diluted compound into quadrant wells 2 (0.1 mM), 3 (1 μM) and 4 (0.01 μM), respectively. 40 μL of DMSO added to wells in row P on the source plate allowed for DMSO normalisation across the dose range. To dose the control wells 40 μL of DMSO was added to row O1 and 40 μL of 100 μM fulvestrant in DMSO was added to row O3 on the compound source plate.
The Echo uses acoustic technology to perform direct microplate-to-microplate transfers of DMSO compound solutions to assay plates. The system can be programmed to transfer volumes as low as 2.5 nL in multiple increments between microplates and in so doing generates a serial dilution of compound in the assay plate which is then back-filled to normalise the DMSO concentration across the dilution range. Compounds were dispensed onto the cell plates with a compound source plate prepared as above producing a 12 point duplicate […] dose range with 3-fold dilutions and one final 10-fold dilution using the Integrated Echo 2 workcell. The maximum signal control wells were dosed with DMSO to give a final concentration of 0.3%, and the minimum signal control wells were dosed with fulvestrant to give a final concentration of 100 nM accordingly. Plates were further incubated for 18-22 hours at 37° C., 5% CO2 and then fixed by the addition of 20 μL of 11.1% (v/v) formaldehyde solution (in phosphate buffered saline (PBS)) giving a final formaldehyde concentration of 3.7% (v/v). Cells were fixed at room temperature for 20 mins before being washed two times with 250 μL PBS/Proclin (PBS with a Biocide preservative) using a BioTek platewasher, 40 μL of PBS/Proclin was then added to all wells and the plates stored at 4° C. The fixing method described above was carried out on the Integrated Echo 2 workcell. Immunostaining was performed using an automated AutoElisa workcell. The PBS/Proclin was aspirated from all wells and the cells permeabilised with 40 μL PBS containing 0.5% Tween™ 20 (v/v) for 1 hour at room temperature. The plates were washed three times in 250 μL of PBS/0.05% (v/v) Tween 20 with Proclin (PBST with a Biocide preservative) and then 20 μL of ERα (SP1) Rabbit monoclonal antibody (Thermofisher) 1:1000 in PBS/Tween™/3% (w/v) Bovine Serum Albumin was added. The plates were incubated overnight at 4° C. (Liconic carousel incubator) and then washed three times in 250 μL of PBS/0.05% (v/v) Tween™ 20 with Proclin (PBST). […]

SMILES	IC50 [1]	DC50 [2]
Cc1ncsc1-c1ccc(CNC(=O)[C@@H]2C[C@@H](O)CN2C(=O)[C@@H](NC(=O)c2ccc(CCCCCOc3cc(F)c([C@@H]4c5[nH]c6ccccc6c5C[C@@H](C)N4CC(C)(C)F)c(F)c3)cc2)C(C)(C)C)cc1 [Example 27, (2S,4R)-1-((S)-2-(4-(5-(3,5-Difluoro-4-((1R,3R)-2-(2-fluoro-2-methylpropyl)-3-methyl-2,3,4,9-tetrahydro-1H-pyrido[3,4-b]indol-1-yl)phenoxy)pentyl)benzamido)-3,3-dimethylbutanoyl)-4-hydroxy-N-(4-(4-methylthiazol-5-yl)benzyl)pyrrolidine-2-carboxamide]	1.1 nM	22 nM
Cc1ncsc1-c1ccc(CNC(=O)[C@@H]2C[C@@H](O)CN2C(=O)[C@@H](NC(=O)COCCOCCOCCOc2cc(F)c([C@@H]3c4[nH]c5ccccc5c4C[C@@H](C)N3C[C@H](C)C(=O)O)c(F)c2)C(C)(C)C)cc1 [Example 30, (S)-3-((1R,3R)-1-(2,6-Difluoro-4-(((S)-13-((2S,4R)-4-hydroxy-2-((4-(4-methylthiazol-5-yl)benzyl)carbamoyl)pyrrolidine-1-carbonyl)-14,14-dimethyl-11-oxo-3,6,9-trioxa-12-azapentadecyl)oxy)phenyl)-3-methyl-1,3,4,9-tetrahydro-2H-pyrido[3,4-b]indol-2-yl)-2-methylpropanoic Acid]	4.1 nM	174 nM
Cc1ncsc1-c1ccc(CNC(=O)[C@@H]2C[C@@H](O)CN2C(=O)[C@@H](N(C)C(=O)COCCOCCOCCOc2cc(F)c([C@@H]3c4[nH]c5ccccc5c4C[C@@H](C)N3CC(C)(C)F)c(F)c2)C(C)(C)C)cc1 [Example 31, (2S,4R)-1-((S)-2-(tert-Butyl)-14-(3,5-difluoro-4-((1R,3R)-2-(2-fluoro-2-methylpropyl)-3-methyl-2,3,4,9-tetrahydro-1H-pyrido[3,4-b]indol-1-yl)phenoxy)-3-methyl-4-oxo-6,9,12-trioxa-3-azatetradecanoyl)-4-hydroxy-N-(4-(4-methylthiazol-5-yl)benzyl)pyrrolidine-2-carboxamide]	0.6 nM	0.3 nM
Cc1ncsc1-c1ccc(CNC(=O)[C@@H]2C[C@@H](O)CN2C(=O)[C@@H](NCc2ccc(COc3cc(F)c([C@@H]4c5[nH]c6ccccc6c5C[C@@H](C)N4CC(C)(C)F)c(F)c3)cc2)C(C)(C)C)cc1 [Example 35, (2S,4R)-1-((S)-2-((4-((3,5-difluoro-4-((1R,3R)-2-(2-fluoro-2-methylpropyl)-3-methyl-2,3,4,9-tetrahydro-1H-pyrido[3,4-b]indol-1-yl)phenoxy)methyl)benzyl)amino)-3,3-dimethylbutanoyl)-4-hydroxy-N-(4-(4-methylthiazol-5-yl)benzyl)pyrrolidine-2-carboxamide]	1 nM	9.1 nM
Cc1ncsc1-c1ccc(CNC(=O)[C@@H]2C[C@@H](O)CN2C(=O)[C@@H](NC(=O)c2ccc(COc3cc(F)c([C@@H]4c5[nH]c6ccccc6c5C[C@@H](C)N4CC(C)(C)F)c(F)c3)cc2)C(C)(C)C)cc1 [Example 36, (2S,4R)-1-((S)-2-(4-((3,5-Difluoro-4-((1R,3R)-2-(2-fluoro-2-methylpropyl)-3-methyl-2,3,4,9-tetrahydro-1H-pyrido[3,4-b]indol-1-yl)phenoxy)methyl)benzamido)-3,3-dimethylbutanoyl)-4-hydroxy-N-(4-(4-methylthiazol-5-yl)benzyl)pyrrolidine-2-carboxamide]	1 nM	1 nM
